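Cells were grown in 96-well plates and exposed to each compound for 48 hours at five concentrations; endpoints were interpolated linearly between bracketing concentrations, or set to the highest concentration if not reached. GI50 marks 50% less growth.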 Calls of active or inactive are those of the source. No stated cut-off is given here; in the data, active = GI50 up to about 1.1 µM and inactive = higher.
Legend:
Assay in all cases: NCI-60 cell line screen, 48 h
UACC-62 = tested on: UACC-62
SF-295 = tested on: SF-295
SW-620 = tested on: SW-620
HCC 2998 = tested on: HCC 2998
HOP-62 = tested on: HOP-62
M14 = tested on: M14
ACHN = tested on: ACHN
KM12 = tested on: KM12
A498 = tested on: A498
SK-MEL-2 = tested on: SK-MEL-2
SF-539 = tested on: SF-539
HCT-116 = tested on: HCT-116
CAKI-1 = tested on: CAKI-1
OVCAR-8 = tested on: OVCAR-8
SF-268 = tested on: SF-268
CCRF-CEM = tested on: CCRF-CEM
U-251 = tested on: U-251
NCI-H522 = tested on: NCI-H522
RXF 393 = tested on: RXF 393

Measured: GI50

CC12C/C(=C\c3ccccc3)C(=O)C3C1CCCC32
inactive: UACC-62 > 100 µM | SF-295 > 100 µM | SW-620 > 100 µM | HCC 2998 44.5 µM | HOP-62 > 100 µM | M14 > 100 µM | ACHN > 100 µM | KM12 55.1 µM | A498 > 100 µM | SK-MEL-2 > 100 µM | SF-539 > 100 µM | HCT-116 67.8 µM | CAKI-1 > 100 µM | OVCAR-8 > 100 µM | SF-268 > 100 µM | CCRF-CEM 33.3 µM | U-251 61.4 µM | NCI-H522 26.5 µM

Cn1c(=O)c2ccc(-c3ccc(Br)cc3)nc2n(C)c1=O
inactive: UACC-62 > 100 µM | SF-295 > 100 µM | SW-620 > 100 µM | HCC 2998 > 100 µM | HOP-62 > 100 µM | M14 > 100 µM | KM12 > 100 µM | A498 > 100 µM | SK-MEL-2 > 100 µM | SF-539 > 100 µM | HCT-116 68.9 µM | OVCAR-8 > 100 µM | SF-268 > 100 µM | CCRF-CEM > 100 µM | U-251 > 100 µM | NCI-H522 > 100 µM

c1cc2nnsc2s1
inactive: UACC-62 > 100 µM | SF-295 > 100 µM | SW-620 39.2 µM | HCC 2998 > 100 µM | HOP-62 > 100 µM | M14 > 100 µM | ACHN > 100 µM | KM12 > 100 µM | A498 > 100 µM | SK-MEL-2 > 100 µM | SF-539 > 100 µM | CAKI-1 > 100 µM | OVCAR-8 > 100 µM | SF-268 > 100 µM | CCRF-CEM > 100 µM | U-251 > 100 µM | NCI-H522 > 100 µM

CCOC(=O)C1Cc2[nH]c3ccccc3c2C(C)C1C (stereo not drawn)
inactive: UACC-62 10.8 µM | SF-295 19.4 µM | SW-620 17.3 µM | HCC 2998 > 10 µM | M14 16.7 µM | ACHN 13.7 µM | KM12 17 µM | A498 17.4 µM | SK-MEL-2 20.2 µM | SF-539 16.5 µM | HCT-116 16.3 µM | CAKI-1 16.4 µM | OVCAR-8 3.55 µM | SF-268 19.5 µM | CCRF-CEM 19.7 µM | U-251 18.5 µM | NCI-H522 12.2 µM

CO[C@]12CCC(=O)N1C=Cc1c2[nH]c2ccccc12
inactive: UACC-62 > 100 µM | SF-295 > 100 µM | SW-620 > 100 µM | HCC 2998 > 100 µM | HOP-62 > 100 µM | M14 > 100 µM | ACHN > 100 µM | A498 > 100 µM | SF-539 > 100 µM | HCT-116 > 100 µM | CAKI-1 > 100 µM | OVCAR-8 > 100 µM | SF-268 > 100 µM | CCRF-CEM > 100 µM | RXF 393 > 100 µM
